Source: patent US7662789B2, “Peptide substance restoring myocardium function” (“Access Bioscience” CJSC, priority 2004, dated 2010)
Where two headings read alike, the source gives them in different places. Marks after values point to notes of the source that are not given here. Where a SMILES comes first, the peptide text is derived from it.

How the values were obtained:
[1] = test system: isolated guinea pig heart; assay: Isolated guinea pig heart, Langendorf perfusion, 30 min total ischemia and re-perfusion; design: species or system guinea pigs
Description: The experiment was conducted under conditions of perfusion in isolated hearts of 60 male guinea pigs, by Langendorf. The animals were randomly subdivided into several groups, each consisting of 6 animals. Total cardiac ischemia was induced by means of fully tightening the perfusional solution hose for 30 minutes. Then re-perfusion was performed under the same conditions as before ischemia (control group). In experimental animals perfusion was performed together with Ala-Glu-Asp-Arg (SEQ ID NO:1) tetrapeptide in the concentrations of 0.002-0.05 μg/ml. Mechanical contractions were registered, bioptates, weighing approximately 10 mg, were several times taken from the top of the heart, then the content of malon dialdegide (MDA) was identified in them. The hearts in the end of the experiment and partially before ischemia were frozen in liquid nitrogen for ATP, ADP and AMP content identification.

isolated rat heart [2] = assay: Contractive ability of isolated rat heart after ischemia; details: 10 min re-perfusion
Description: Another experiment was devoted to the study of the tetrapeptide's effect on the restoration of isolated rat heart's ability to contract after a period of ischemia. The study was conducted on 3 groups, 8 animals in each, in case of the additionally strained cardiac muscle working mode, under conditions of induced contraction rhythm and perfusion solution temperature increase up to 37° C.
The other series of experiments conducted on 12 rat hearts was aimed at the study of the tetrapeptide's protective effect in case of its addition into the perfusate in the concentration of […] before the induction of ischemia. Then “severe” stimulation was conducted (5 Hz frequency) in the heart and contractive activity was estimated. […] The administration of the tetrapeptide in a very small dose of 0.005 μg/ml preserved the heart, which was on the verge of stopping, from fibrillation and contractive activity decrease, restoring the value of the latter index.

[3] = test system: organotypic cardiac culture explants; details: 3 days incubation
Description: Cardiac tissue explants (from the left and right ventricles) of pubertal Wistar rats were cultivated in petri dishes with collagen bottom cover. The nutritious medium was composed of 35% Eagle's medium, 35% Hanx solution, 25% calf fetal serum and 5% of chicken embryonic extract with added glucose, insulin, gentamycin and glutamin. Ala-Glu-Asp-Arg (SEQ ID NO:1) tetrapeptide was added into the cultural medium in fixed concentrations, from 0.01 to 20.0 ng per ml of nutritious medium. After 3 days of incubation at the temperature of 37° C. the increase in the area of explants was identified using phase contrast microscope. Biological activity of the preparation was expressed in the change of square index (SI) of the explants cultivated in the medium containing the peptide, as compared to the control.

isolated cardiomyocytes = assay: Cardiomyocyte bioenergetics, polarographic oxygen consumption; type: cell-based, rats
Description: Cardiomyocytes were extracted from the cardiac muscle of pubertal rats by Vahouny. Oxygen consumption by isolated cardiomyocytes was registered polarographically at the temperature of 30° C. Part of cardiomyocytes suspension was oxygenated by saturation with carbogen for 1-3 hours at room temperature. The other part of suspension was not oxygenated (conditions of moderate hypoxia). […] The tetrapeptide was introduced into the medium in the concentration of 10 ng/ml.

white mongrel male rats = assay: Sub-acute toxicity, 90 days intramuscular in rats; type: in vivo; details: 90 days i.m. daily; 1 μg/kg, 0.1 mg/kg, 1 mg/kg; 100-1000 times the therapeutic doses
Description: The study of sub-acute toxicity was conducted on 60 white mongrel male rats with body weight of 160-240 g. […] Before the substance's administration, as well as on the 30th, 60th and 90th day after the beginning of the course the morphological composition and the properties of the animals' peripheric blood were studied. Upon completion of the experiment the biochemical and coagulological indices of the animals' blood were studied.

succinate dehydrogenase = details: myocardium slices from different animals
isolated rat heart [4] = assay: Contractive ability of isolated rat heart after ischemia; details: 0.005 μg/ml; 12 rat hearts; severe stimulation 5 Hz
[5] = 0.002 μg/ml, re-perfusion 15 min
[6] = 0.002 μg/ml, re-perfusion 30 min
[7] = 0.005 μg/ml, re-perfusion 15 min
[8] = 0.005 μg/ml, re-perfusion 30 min
[9] = 0.01 μg/ml, re-perfusion 15 min
[10] = 0.01 μg/ml, re-perfusion 30 min
[11] = 0.05 μg/ml, re-perfusion 15 min
[12] = 0.05 μg/ml, re-perfusion 30 min
[13] = 0.005 μg/ml, listed as tetrapeptide

## C[C@H](N)C(=O)N[C@@H](CCC(=O)O)C(=O)N[C@@H](CC(=O)O)C(=O)N[C@@H](CCCNC(=N)N)C(=O)O [Tetrapeptide, L-alanyl-L-glutamyl-L-aspartyl-L-arginine] (H-AEDR-OH)
[1]; 0.002 μg/ml, before ischemia
  Amplitude of contractions, % of initial: 100 % of initial
  MDA: 225 ± 23 nmole/g of tissue
[1]; [5]
  Amplitude of contractions, % of initial: 70 ± 13 % of initial
  MDA: 216 ± 5 nmole/g of tissue
[1]; [6]
  Amplitude of contractions, % of initial: 81 ± 16 % of initial
  MDA: 220 ± 12 nmole/g of tissue
[1]; 0.005 μg/ml, before ischemia
  Amplitude of contractions, % of initial: 100 % of initial
  MDA: 168 ± 25 nmole/g of tissue
[1]; [7]
  Amplitude of contractions, % of initial: 89 ± 6 % of initial
  MDA: 231 ± 7 nmole/g of tissue
[1]; [8]
  Amplitude of contractions, % of initial: 93 ± 5 % of initial
  MDA: 186 ± 10 nmole/g of tissue
[1]; 0.01 μg/ml, before ischemia
  Amplitude of contractions, % of initial: 100 % of initial
  MDA: 203 ± 18 nmole/g of tissue
[1]; [9]
  Amplitude of contractions, % of initial: 61 ± 4 % of initial
  MDA: 248 ± 8 nmole/g of tissue
[1]; [10]
  Amplitude of contractions, % of initial: 64 ± 3 % of initial
  MDA: 220 ± 9 nmole/g of tissue
[1]; 0.05 μg/ml, before ischemia
  Amplitude of contractions, % of initial: 100 % of initial
  Energy charge: 7.78 ± 0.14 μmole of adenosine phosphates/g of tissue
  MDA: 156 ± 28 nmole/g of tissue
[1]; [11]
  Amplitude of contractions, % of initial: 38 ± 13 % of initial
  MDA: 264 ± 13 nmole/g of tissue
[1]; [12]
  Amplitude of contractions, % of initial: 32 ± 9 % of initial
  Energy charge: 2.98 ± 0.35 μmole of adenosine phosphates/g of tissue
  MDA: 252 ± 11 nmole/g of tissue
[1]; 0.002-0.005 μg/ml, before ischemia
  Energy charge: 7.68 ± 0.21 μmole of adenosine phosphates/g of tissue
[1]; 0.002-0.005 μg/ml, re-perfusion 30 min
  Energy charge: 6.01 ± 0.23 μmole of adenosine phosphates/g of tissue
[1]; perfusion without ischemia
  Influence on the status of the normal heart: does not influence the status of the normal heart
Isolated rat heart [2]; 0.005 μg/ml
  Amplitude of contractions, % of init.: 75 ± 12 % of init.
  Coronary duct: 10.8 ± 1.6 mL/min
  Extent of contracture: 1.3 ± 0.4 mm
  Max. speed of contraction, % of init.: 56 ± 10 % of init.
  Max. speed of relaxation, % of init.: 69 ± 8 % of init.
Isolated rat heart [2]; [13]
  Amplitude of contractions, % of init.: 75±12 % of init.
  Coronary duct: 10.8 ± 1.6 mL/min
Isolated rat heart [2]; 0.05 μg/ml
  Amplitude of contractions, % of init.: 36 ± 10 % of init.
  Coronary duct: 9.6 ± 0.7 mL/min
  Extent of contracture: 2.5 ± 0.3 mm
  Max. speed of contraction, % of init.: 28 ± 7 % of init.
  Max. speed of relaxation, % of init.: 28 ± 6 % of init.
[3]; 0.01 ng/ml
  SI, % with respect to the control: 10%
[3]; 0.05 ng/ml
  SI, % with respect to the control: 20* %
[3]; 0.1 ng/ml
  SI, % with respect to the control: 22* %
[3]; 0.5 ng/ml
  SI, % with respect to the control: 20* %
[3]; 1.0 ng/ml
  SI, % with respect to the control: 15* %
[3]; 2.0 ng/ml
  SI, % with respect to the control: 20* %
[3]; 10.0 ng/ml
  SI, % with respect to the control: 27* %
[3]; 20.0 ng/ml
  SI, % with respect to the control: 8%
Isolated cardiomyocytes; 10 ng/ml, hypoxia, succinate 1×10^−4 M, without tetrapeptide 7.35±0.26
  Coefficient of breath stimulation (breath rate with succinate to initial breath rate): 1.97±0.26
Isolated cardiomyocytes; tetrapeptide in the medium
  NAD.H2 oxidation by cardiomyocytes: increases NAD.H2 oxidation by cardiomyocytes
White mongrel male rats
  Sub-acute toxicity, side effects: absence of side effects
Succinate dehydrogenase
  Activity of succinate dehydrogenase: inhibiting effect
Isolated rat heart [4]
  Protective effect when added into the perfusate before induced ischemia: restrained the growth of contracture during the period of ischemia
